Experimental data reported in US20200129561A1, “DELIVERY OF AUTOLOGOUS CELLS COMPRISING MATRIX METALLOPROTEINASE FOR TREATMENT OF SCLERODERMA” (Intrexon Corporation, priority 2017, published 2020).

Experiment: Nonclinical studies of veledimex control of target protein expression: tissue level of veledimex
Format: in vivo
Conditions: oral administration; other target proteins
Excerpt: MMP-1 expression levels were undetected after 10 days post-injection.

CCC[C@@H](N(NC(=O)c1cccc(OC)c1CC)C(=O)c1cc(C)cc(C)c1)C(C)(C)C [veledimex, 3,5-dimethyl-benzoic acid (R)—N-(1-tert-butyl-butyl)-N′-(2-ethyl-3-methoxy-benzoyl)-hydrazide]
levels of veledimex in the tissue at which maximal expression of target protein can be achieved: approximately 250 ng/mL
